Source: ChEMBL document CHEMBL1201862, “PubChem BioAssay data set” (2004)
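Growth conditions: 96-well plates. Treatment: test compound, 48 hours, 5 concentrations. Analysis: linear interpolation between bracketing concentrations; unreached endpoints set to highest concentration. Here, GI50 denotes the concentration required for 50% inhibition of growth.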 Calls of active or inactive are those of the source. Cut-off read from the data, not from the text of the source: active = GI50 up to about 1.1 µM and inactive = higher.

Assays:
Assay in all cases: NCI-60 cell line screen, 48 h
NCI-H226 = system: NCI-H226
RPMI-8226 = system: RPMI-8226
HOP-62 = system: HOP-62
SNB-78 = system: SNB-78
SW-620 = system: SW-620
UACC-62 = system: UACC-62
CAKI-1 = system: CAKI-1
M19-MEL = system: M19-MEL
HOP-18 = system: HOP-18
HCT-116 = system: HCT-116
HT-29 = system: HT-29
SK-MEL-2 = system: SK-MEL-2
K562 = system: K562
NCI-H522 = system: NCI-H522
SK-MEL-5 = system: SK-MEL-5
NCI-H23 = system: NCI-H23
SF-539 = system: SF-539
LXFL 529 = system: LXFL 529
KM-20L2 = system: KM-20L2
A549 = system: A549
MOLT-4 = system: MOLT-4
LOX IMVI = system: LOX IMVI
SK-OV-3 = system: SK-OV-3
DMS-114 = system: DMS-114
786-0 = system: 786-0
HCT-15 = system: HCT-15
OVCAR-8 = system: OVCAR-8
SF-268 = system: SF-268
HL-60 = system: HL-60
UO-31 = system: UO-31
ACHN = system: ACHN
RXF 393 = system: RXF 393
U-251 = system: U-251
DLD-1 = system: DLD-1
SK-MEL-28 = system: SK-MEL-28
SR = system: SR
TK-10 = system: TK-10
SN12C = system: SN12C
HCC 2998 = system: HCC 2998
CCRF-CEM = system: CCRF-CEM
UACC-257 = system: UACC-257
KM12 = system: KM12
IGROV-1 = system: IGROV-1
M14 = system: M14
Malme-3M = system: Malme-3M
SF-295 = system: SF-295
EKVX = system: EKVX
OVCAR-3 = system: OVCAR-3
NCI-H460 = system: NCI-H460
HOP-92 = system: HOP-92
XF498 = system: XF498
OVCAR-5 = system: OVCAR-5
SNB-19 = system: SNB-19
OVCAR-4 = system: OVCAR-4
COLO 205 = system: COLO 205
DMS-273 = system: DMS-273
A498 = system: A498
SNB-75 = system: SNB-75

Question: With CC(=O)/C(=C\c1cccc([N+](=O)[O-])c1)C(=O)Nc1ccccc1C as the compound, how does the GI50 (NCI-H226) read?
Answer: > 100 µM (inactive)

Question: And the GI50 (RPMI-8226)?
Answer: 42.8 µM (inactive)

Question: What about the GI50 (HOP-62) of the same compound?
Answer: > 100 µM (inactive)

Question: What about the GI50 (SNB-78) of the same compound?
Answer: > 100 µM (inactive)

Question: What about the GI50 (SW-620) of the same compound?
Answer: > 100 µM (inactive)

Question: What about the GI50 (UACC-62) of the same compound?
Answer: 59.2 µM (inactive)

Question: And the GI50 (CAKI-1)?
Answer: > 100 µM (inactive)

Question: And the GI50 (M19-MEL)?
Answer: > 100 µM (inactive)

Question: What about the GI50 (HOP-18) of the same compound?
Answer: > 100 µM (inactive)

Question: And the GI50 (HCT-116)?
Answer: 57.3 µM (inactive)

Question: What about the GI50 (HT-29) of the same compound?
Answer: 95.1 µM (inactive)

Question: What about the GI50 (SK-MEL-2) of the same compound?
Answer: > 100 µM (inactive)

Question: What about the GI50 (K562) of the same compound?
Answer: 72.4 µM (inactive)

Question: What about the GI50 (NCI-H522) of the same compound?
Answer: > 100 µM (inactive)

Question: What about the GI50 (SK-MEL-5) of the same compound?
Answer: > 100 µM (inactive)

Question: And the GI50 (NCI-H23)?
Answer: > 100 µM (inactive)

Question: And the GI50 (SF-539)?
Answer: > 100 µM (inactive)

Question: And the GI50 (LXFL 529)?
Answer: > 100 µM (inactive)

Question: What about the GI50 (KM-20L2) of the same compound?
Answer: > 100 µM (inactive)

Question: And the GI50 (A549)?
Answer: > 100 µM (inactive)

Question: And the GI50 (MOLT-4)?
Answer: 39.5 µM (inactive)

Question: What about the GI50 (LOX IMVI) of the same compound?
Answer: 60.1 µM (inactive)

Question: What about the GI50 (SK-OV-3) of the same compound?
Answer: > 100 µM (inactive)

Question: What about the GI50 (DMS-114) of the same compound?
Answer: > 100 µM (inactive)

Question: And the GI50 (786-0)?
Answer: > 100 µM (inactive)

Question: What about the GI50 (HCT-15) of the same compound?
Answer: > 100 µM

Question: And the GI50 (OVCAR-8)?
Answer: > 10 µM (inactive)

Question: And the GI50 (SF-268)?
Answer: > 100 µM (inactive)

Question: And the GI50 (HL-60)?
Answer: 20.2 µM (inactive)

Question: And the GI50 (UO-31)?
Answer: > 100 µM (inactive)

Question: And the GI50 (ACHN)?
Answer: > 100 µM (inactive)

Question: What about the GI50 (RXF 393) of the same compound?
Answer: > 100 µM (inactive)

Question: What about the GI50 (U-251) of the same compound?
Answer: 91.2 µM (inactive)

Question: And the GI50 (DLD-1)?
Answer: > 100 µM (inactive)

Question: What about the GI50 (SK-MEL-28) of the same compound?
Answer: > 100 µM (inactive)

Question: What about the GI50 (SR) of the same compound?
Answer: 33.6 µM (inactive)

Question: And the GI50 (TK-10)?
Answer: > 100 µM (inactive)

Question: And the GI50 (SN12C)?
Answer: > 100 µM (inactive)

Question: And the GI50 (HCC 2998)?
Answer: 75.5 µM (inactive)

Question: What about the GI50 (CCRF-CEM) of the same compound?
Answer: 31.2 µM (inactive)

Question: And the GI50 (UACC-257)?
Answer: > 100 µM (inactive)

Question: What about the GI50 (KM12) of the same compound?
Answer: > 100 µM (inactive)

Question: And the GI50 (IGROV-1)?
Answer: > 100 µM (inactive)

Question: What about the GI50 (M14) of the same compound?
Answer: 95.7 µM (inactive)

Question: And the GI50 (Malme-3M)?
Answer: > 100 µM (inactive)

Question: What about the GI50 (SF-295) of the same compound?
Answer: > 100 µM (inactive)

Question: And the GI50 (EKVX)?
Answer: > 100 µM (inactive)

Question: What about the GI50 (OVCAR-3) of the same compound?
Answer: > 100 µM (inactive)

Question: What about the GI50 (NCI-H460) of the same compound?
Answer: > 100 µM (inactive)

Question: And the GI50 (HOP-92)?
Answer: > 100 µM (inactive)

Question: What about the GI50 (XF498) of the same compound?
Answer: > 100 µM (inactive)

Question: And the GI50 (OVCAR-5)?
Answer: > 100 µM (inactive)

Question: And the GI50 (SNB-19)?
Answer: 94.4 µM (inactive)

Question: What about the GI50 (OVCAR-4) of the same compound?
Answer: 56.4 µM (inactive)

Question: COc1ccc([Se]c2ccc(OC)cc2)cc1 was tested. Which GI50 (NCI-H226) did it give?
Answer: 17.4 µM (inactive)

Question: What about the GI50 (RPMI-8226) of the same compound?
Answer: 24.4 µM (inactive)

Question: What about the GI50 (HOP-62) of the same compound?
Answer: > 100 µM (inactive)

Question: What about the GI50 (SW-620) of the same compound?
Answer: > 100 µM (inactive)

Question: What about the GI50 (UACC-62) of the same compound?
Answer: > 100 µM (inactive)

Question: What about the GI50 (COLO 205) of the same compound?
Answer: > 100 µM (inactive)

Question: And the GI50 (CAKI-1)?
Answer: 23.3 µM (inactive)

Question: What about the GI50 (DMS-273) of the same compound?
Answer: 92.5 µM (inactive)

Question: What about the GI50 (M19-MEL) of the same compound?
Answer: 69.7 µM (inactive)

Question: What about the GI50 (HOP-18) of the same compound?
Answer: 27.9 µM (inactive)

Question: And the GI50 (HCT-116)?
Answer: 55.2 µM (inactive)

Question: And the GI50 (HT-29)?
Answer: 43.6 µM (inactive)

Question: And the GI50 (SK-MEL-2)?
Answer: > 100 µM (inactive)

Question: And the GI50 (K562)?
Answer: 60.1 µM (inactive)

Question: And the GI50 (NCI-H522)?
Answer: 27.2 µM (inactive)

Question: And the GI50 (SK-MEL-5)?
Answer: 48.2 µM (inactive)

Question: And the GI50 (NCI-H23)?
Answer: 56.2 µM (inactive)

Question: And the GI50 (SF-539)?
Answer: 73.3 µM (inactive)

Question: What about the GI50 (KM-20L2) of the same compound?
Answer: 65.2 µM (inactive)

Question: And the GI50 (A549)?
Answer: > 100 µM (inactive)

Question: What about the GI50 (MOLT-4) of the same compound?
Answer: 41.5 µM (inactive)

Question: And the GI50 (LOX IMVI)?
Answer: > 100 µM (inactive)

Question: What about the GI50 (SK-OV-3) of the same compound?
Answer: > 100 µM (inactive)

Question: What about the GI50 (DMS-114) of the same compound?
Answer: 29.1 µM (inactive)

Question: What about the GI50 (786-0) of the same compound?
Answer: > 100 µM (inactive)

Question: And the GI50 (HCT-15)?
Answer: 68.1 µM

Question: What about the GI50 (OVCAR-8) of the same compound?
Answer: > 100 µM (inactive)

Question: And the GI50 (SF-268)?
Answer: 56.9 µM (inactive)

Question: And the GI50 (HL-60)?
Answer: 41.5 µM (inactive)

Question: And the GI50 (UO-31)?
Answer: 2.09 µM (inactive)

Question: What about the GI50 (ACHN) of the same compound?
Answer: > 100 µM (inactive)

Question: And the GI50 (RXF 393)?
Answer: 19.5 µM (inactive)

Question: What about the GI50 (U-251) of the same compound?
Answer: > 100 µM (inactive)

Question: And the GI50 (DLD-1)?
Answer: > 100 µM (inactive)

Question: And the GI50 (SK-MEL-28)?
Answer: > 100 µM (inactive)

Question: What about the GI50 (TK-10) of the same compound?
Answer: > 100 µM (inactive)

Question: And the GI50 (SN12C)?
Answer: > 100 µM (inactive)

Question: What about the GI50 (HCC 2998) of the same compound?
Answer: > 100 µM (inactive)

Question: What about the GI50 (CCRF-CEM) of the same compound?
Answer: 58.9 µM (inactive)

Question: And the GI50 (UACC-257)?
Answer: 48.2 µM (inactive)

Question: What about the GI50 (KM12) of the same compound?
Answer: > 100 µM (inactive)

Question: And the GI50 (IGROV-1)?
Answer: > 100 µM (inactive)

Question: And the GI50 (M14)?
Answer: > 100 µM (inactive)

Question: And the GI50 (A498)?
Answer: 99.1 µM (inactive)

Question: And the GI50 (Malme-3M)?
Answer: > 100 µM (inactive)

Question: And the GI50 (SF-295)?
Answer: > 100 µM (inactive)

Question: And the GI50 (OVCAR-3)?
Answer: 76.6 µM (inactive)

Question: And the GI50 (NCI-H460)?
Answer: > 100 µM (inactive)

Question: And the GI50 (SNB-75)?
Answer: 19.3 µM (inactive)

Question: What about the GI50 (HOP-92) of the same compound?
Answer: 23.9 µM (inactive)

Question: And the GI50 (XF498)?
Answer: > 100 µM (inactive)

Question: And the GI50 (SNB-19)?
Answer: > 100 µM (inactive)
